Laboratory results: patent US9057090B2, “Method of identifying an agent for inhibiting odor of pyrazine derivatives” (Kao Corporation, priority 2012, dated 2015)

Molecular target: T1, olfactory receptor OR5K1 (Homo sapiens, UniProt Q8NHB7)
T1 construct: expressed in transfected cells; host or cells: HEK293
T1 sequence (Q8NHB7 1-308): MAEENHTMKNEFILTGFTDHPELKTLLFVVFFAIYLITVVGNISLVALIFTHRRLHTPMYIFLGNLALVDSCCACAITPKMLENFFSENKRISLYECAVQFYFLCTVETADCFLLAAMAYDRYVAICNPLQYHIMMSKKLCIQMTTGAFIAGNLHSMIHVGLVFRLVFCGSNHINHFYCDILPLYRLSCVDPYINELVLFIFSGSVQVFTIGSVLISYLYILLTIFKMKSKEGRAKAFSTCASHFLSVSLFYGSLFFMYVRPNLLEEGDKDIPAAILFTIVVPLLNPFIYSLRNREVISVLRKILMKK
Experiment: Antagonist assay: inhibition of OR5K1 response to 2,6-dimethylpyrazine (luciferase reporter)
Type: cell-based
Details: HEK293 cells expressing OR5K1; 2,6-dimethylpyrazine 1 mM + test substance 300 μM (cytotoxic flavoring agents re-evaluated at 333 μM + 100 μM); read-out: Inhibition rate (receptor response-inhibiting rate)
Protocol: The receptor response-inhibiting rate of a test substance was calculated as follows. The receptor activity (X−Y) by stimulation with 2,6-dimethylpyrazine alone was determined by subtracting the luminescence value (Y) in cells to which the receptor was introduced but were not stimulated with 2,6-dimethylpyrazine from the luminescence value (X) derived from firefly luciferase induced by stimulation with 2,6-dimethylpyrazine alone. Similarly, the receptor activity (Z−Y) in the presence of a test substance was determined by subtracting the luminescence value (Y) in cells not stimulated with 2,6-dimethylpyrazine from the luminescence value (Z) stimulated with a mixture of 2,6-dimethylpyrazine and the test substance. The reduction rate of the receptor activity (Z−Y) in the presence of a test substance to the receptor activity (X−Y) by stimulation with 2,6-dimethylpyrazine alone was calculated by the following computation expression: Inhibition rate (%)={1−(Z−Y)/(X−Y)}×100, to determine the receptor response-inhibiting rate of the test substance. In the measurement, multiple independent experiments were performed in duplicate, and the average of each experiment was used.

Row | Compound | inhibition at 300 µM [%]
1 | CCC(O)COC1CCCCC1C(C)(C)C (centres unmarked) [Amber Core, 1-(2-tert-butylcyclohexyloxy)-2-butanol] | ≥ 75
2 | CC1(C)CCCC2(C)C1CCC1(C)OCCC12 (centres unmarked) [Ambrotech, dodecahydro-3a,6,6,9a-tetramethyl-naphtho[2,1-b]furan] | ≥ 50
3 | C=CCCC(=O)C1=CCCC(C)(C)C1 [Dynascone, 1-(5,5-dimethyl-1-cyclohexen-1-yl)-4-penten-1-one] | ≥ 40
4 | CC(=O)C1(C)CC2=C(CCCC2(C)C)CC1C (centres unmarked) [Iso E Super, 7-acetyl-1,2,3,4,5,6,7,8-octahydro-1,1,6,7-tetramethyl-naphthalene] | ≥ 75
5 | CC(C=O)C1CCCCC1 (centres unmarked) [Pollenal II, 2-cyclohexylpropanal] | ≥ 50
6 | CC(=CCC1CC=C(C)C1(C)C)CO (centres unmarked) [Sandalmysore Core, 2-methyl-4-(2,2,3-trimethyl-3-cyclopenten-1-yl)-2-buten-1-ol] | ≥ 50
7 | CC(=O)c1cc2c(cc1C)C(C)(C)C(C)CC2(C)C (centres unmarked) [Tonalid, 1-(5,6,7,8-tetrahydro-3,5,5,6,8,8-hexamethyl-2-naphthalenyl)-ethanone] | ≥ 75
8 | CC(=O)C1=C(C)C2CC3(C1)C(C)CCC3C2(C)C (centres unmarked) [acetyl cedrene, 1-(2,3,4,7,8,8a-hexahydro-3,6,8,8-tetramethyl-1H-3a,7-methanoazulen-5-yl)-ethanone] | ≥ 50
9 | CCC(=CCC1CC=C(C)C1(C)C)CO (centres unmarked) [bacdanol, 2-ethyl-4-(2,2,3-trimethyl-3-cyclopenten-1-yl)-2-buten-1-ol] | ≥ 75
10 | CC=Cc1ccc(OCc2ccccc2)c(OC)c1 [benzyl isoeugenol, 2-methoxy-1-(phenylmethoxy)-4-(1-propenyl)-benzene] | ≥ 50
11 | CC(=O)O[C@]1(C)CC[C@@]23C[C@@H]1C(C)(C)[C@@H]2CC[C@H]3C [cedryl acetate] | ≥ 50
12 | CC(=O)c1cc(C(C)(C)C)cc2c1C=CC2(C)C [celestolide, 6-tert-butyl-1,1-dimethylinden-4-yl methyl ketone] | ≥ 40
13 | O=CC=Cc1ccccc1 [cinnamaldehyde] | ≥ 50
14 | CC(C)=CCCC(C)=CC=O [citral, 3,7-dimethyl-2,6-octadienal] | ≥ 75
15 | CC(C)=CCCC(C)CC=O (centres unmarked) [citronellal, 3,7-dimethyl-6-octenal] | ≥ 50
16 | CC(C)=CCCC(C)CCOCC=O (centres unmarked) [citronellyloxyacetaldehyde, 6,10-dimethyl-3-oxa-9-undecenal] | ≥ 40

Row | Compound | inhibition at 300 µM [%]
17 | CC=CC(=O)C1=C(C)C=CCC1(C)C [damascenone, 1-(2,6,6-trimethyl-1,3-cyclohexadien-1-yl)-2-buten-1-one] | ≥ 40
18 | CCCCCC1=C(C)CCC1=O [dihydrojasmon, 2-pentyl-3-methyl-2-cyclopenten-1-one] | ≥ 40
19 | O=C1CCCCCCCCCCCC(=O)OCCO1 [ethylene brassylate, 1,4-dioxacyclo-heptadecane-5,17-dione] | ≥ 40
20 | C=CCc1ccc(O)c(OC)c1 [eugenol, 1-allyl-3-methoxy-4-hydroxybenzene] | ≥ 40
21 | CC(C)=CCC/C(C)=C/CO [geraniol, (E)-3,7-dimethyl-2,6-octadien-1-ol] | ≥ 40
22 | CCCCCCOC(=O)c1ccccc1O [hexyl salicylate] | ≥ 40
23 | CC(C=O)c1ccccc1 (centres unmarked) [hydratropic aldehyde, 2-phenyl-propionaldehyde] | ≥ 50
24 | C=C(OCC)C1C(C)(C)CC(=O)CC1(C)C [kephalis, 4-(1-ethoxyvinyl)-3,3,5,5-tetramethyl cyclohexanone] | ≥ 50
25 | CC(C=O)Cc1ccc(C(C)(C)C)cc1 (stereo not drawn) [lilial, α-methyl-β-(p-tert-butylphenyl)-propionaldehyde] | ≥ 50
26 | CC(C)[C@H]1CC[C@@H](CO)CC1 [mayol, cis-4-isopropyl-cyclohexylmethanol] | ≥ 40
27 | CC(=O)c1c(C)c([N+](=O)[O-])c(C(C)(C)C)c([N+](=O)[O-])c1C [musk ketone, 4-tert-butyl-2,6-dimethyl-3,5-dinitro-acetophenone] | ≥ 40
28 | O=C(OCCc1ccccc1)c1ccccc1O [phenylethyl salicylate] | ≥ 75
29 | CC(C)CCCC(C)CCO (centres unmarked) [tetrahydrogeraniol, 3,7-dimethyl-1-octanol] | ≥ 50
30 | Cc1ccc(C(C)C)c(O)c1 [thymol, 5-methyl-2-(1-methylethyl)-phenol] | ≥ 75
31 | CCC=C(C)C(O)CCCCC (centres unmarked) [undecavertol, 4-methyl-3-decen-5-ol] | ≥ 75

System: not listed separately
Experiment: Sensory test of reduction of the odor of 2,6-dimethylpyrazine in dough
Details: flavoring agent 0.5 μL added to dough 0.5 g containing 1% 2,6-dimethylpyrazine; four panelists; rating 1 to 5; FIG. 3
Protocol: A flavoring agent (0.5 μL) was added to dough (0.5 g) containing 2,6-dimethylpyrazine (1%, and the odor thereof was evaluated by comparing the strength of odor of 2,6-dimethylpyrazine in dough not applied with flavor by the flavoring agent. The sensory evaluation test was performed by four panelists. In the evaluation, a case where a strong odor of 2,6-dimethylpyrazine was smelled was rated as 1, and a case where the odor of 2,6-dimethylpyrazine was not smelled at all was rated as 5.

Row | Compound | odor of 2,6-dimethylpyrazine in sensory test
32 | CCC(O)COC1CCCCC1C(C)(C)C (centres unmarked) [Amber Core, 1-(2-tert-butylcyclohexyloxy)-2-butanol] | inhibited
33 | C=CCCC(=O)C1=CCCC(C)(C)C1 [Dynascone, 1-(5,5-dimethyl-1-cyclohexen-1-yl)-4-penten-1-one] | inhibited
34 | CC(=CCC1CC=C(C)C1(C)C)CO (centres unmarked) [Sandalmysore Core, 2-methyl-4-(2,2,3-trimethyl-3-cyclopenten-1-yl)-2-buten-1-ol] | inhibited
35 | CC=CC(=O)C1=C(C)C=CCC1(C)C [damascenone, 1-(2,6,6-trimethyl-1,3-cyclohexadien-1-yl)-2-buten-1-one] | inhibited
36 | CC(C=O)Cc1ccc2c(c1)OCO2 (stereo not drawn) [helional, α-methyl-3,4-methylenedioxyhydrocinnamic aldehyde] | inhibited
37 | CC(C=O)Cc1ccc(C(C)(C)C)cc1 (stereo not drawn) [lilial, α-methyl-β-(p-tert-butylphenyl)-propionaldehyde] | inhibited
38 | CC1=CC(C)C(C=O)CC1 (centres unmarked) [triplal, 2,4-dimethyl-3-cyclohexene-1-carboxyaldehyde] | inhibited
39 | CCC=C(C)C(O)CCCCC (centres unmarked) [undecavertol, 4-methyl-3-decen-5-ol] | inhibited
40 | CCCCCCC(C=O)=Cc1ccccc1 [α-hexylcinnamic aldehyde] | inhibited
41 | CC(=O)/C(C)=C/C1C(C)=CCCC1(C)C (stereo not drawn) [α-isomethyl ionone] | inhibited
42 | CC(=O)C=CC1=C(C)CCCC1(C)C [β-ionone, 4-(2,6,6-trimethyl-1-cyclohexen-1-yl)-3-buten-2-one] | inhibited
43 | CC(=O)c1ccc2ccccc2c1 [β-methyl naphthyl ketone] | inhibited
44 | CCCCCCCC1CCC(=O)O1 (centres unmarked) [γ-undecalactone] | inhibited
45 | CC1C/C=C/CCCCCCCCCC(=O)C1 (centres unmarked) [δ-muscenone, (5E)-3-methylcyclopenta-5-decen-1-one] | inhibited
46 | ethyl-(3aα,4α,7α,3aα)-octahydro-4,7-methano-3aH-indene-3a-carboxylate [Fruitate] | inhibited

Molecular target: T1, olfactory receptor OR5K1
Experiment: Luciferase reporter gene assay: response of olfactory receptor to pyrazine derivatives
Type: cell-based
Details: 0, 3, 10, 30, 100, 300 and 1000 μM; HEK293 cells expressing OR5K1 with RTP1S variant; FIG. 2
Protocol: HEK293 cells expressing 373 types of human olfactory receptors were produced. A reaction solution having a composition shown in Table 1 was prepared and left to stand in a clean bench for 15 min and then was dispensed in each well of a 96-well plate (Becton, Dickinson and Company). Subsequently, HEK293 cells (100 μL, 3×10^5 cells/cm^2) were seeded in each well and cultured in an incubator at 37° C. and 5% CO2 for 24 hr.
An olfactory receptor expressed in HEK293 cells couples with endogenous Gas in the cells to activate adenylate cyclase and thereby increases the amount of intracellular cAMP. In this study, the response of a pyrazine derivative was measured by luciferase reporter gene assay which monitors an increase in the amount of intracellular cAMP as the luminescence value derived from a firefly luciferase gene (fluc2P-CRE-hygro). A Renilla luciferase gene was fused downstream of a CMV promoter (hRluc-CMV) and was also introduced to HEK293 cells as an internal standard to correct errors in transgenic efficiency and number of cells.
The culture medium was removed from the culture produced in the above 3), and 75 μL of a solution prepared with a CD293 medium (Invitrogen Inc.) so as to contain a pyrazine derivative (1 mM 2,6-dimethylpyrazine) was added thereto. The cells were cultured in a CO2 incubator for 2.5 hr to sufficiently express the luciferase gene in the cells. The luciferase activity was measured with a Dual-Glo™ luciferase assay system (Promega Corporation) in accordance with the operating manual of the system. The fold increases were calculated by dividing the luminescence value derived from firefly luciferase induced by stimulation with a pyrazine derivative at each concentration by the luminescence value in cells not stimulated with the pyrazine derivative and were used as an index of response strength.
Olfactory receptor OR5K1 (SEQ ID NO: 2) was expressed in HEK293 cells together with an RTP1S variant (SEQ ID NO: 4) by the same procedure as in Example 1, and the dependency of the response on the concentration (0, 3, 10, 30, 100, 300, and 1000 μM) of various pyrazine compounds was investigated. The pyrazine compounds used in this Example were pyrazine and pyrazine derivatives selected from the group consisting of 2-methylpyrazine, 2,3-dimethylpyrazine, 2,5-dimethylpyrazine, 2,3,5-trimethylpyrazine, 2,3,5,6-tetramethylpyrazine and 2-ethylpyrazine.

Row | Compound | response of OR5K1, dependency on concentration
47 | Cc1nc(C)c(C)nc1C [2,3,5,6-tetramethylpyrazine] | responded in a dose-dependent manner
48 | Cc1cnc(C)c(C)n1 [2,3,5-trimethylpyrazine] | responded in a dose-dependent manner
49 | Cc1nccnc1C [2,3-dimethylpyrazine] | responded in a dose-dependent manner
50 | Cc1cnc(C)cn1 [2,5-dimethylpyrazine] | responded in a dose-dependent manner
